Assay results from article PMC11300601, “Zurletrectinib is a next-generation TRK inhibitor with strong intracranial activity against NTRK fusion-positive tumours with on-target resistance to first-generation agents” (British Journal of Cancer, 2024).
Like-named read-outs stand apart in the source and are kept apart here.

How the values were obtained:
[1] = test system: IRC-I-XL; assay: CellTiter-Glo cell viability, IRC-I-XL primary CRC cell line (LMNA-NTRK1); type: cell-based, human; settings: LMNA-NTRK1 fusion, 72 h, read-out: IC50 against IRC-I-XL cell line
From the text: (§1) NTRK fusion-positive colorectal cancer cell lines IRC, Kor1, and KM12 were utilized. The IRC and the KM12 cell lines were obtained from Dr. Bardelli and cultured according to the described protocols. The Kor1 cell line was obtained from Lee et al. and cultured on laminin pre-treated plates in RPMI media supplemented with 10% Fetal Bovine Serum (FBS). All cell lines were authenticated by STR and periodically screened for the presence of mycoplasma. For the mutant models, two human-derived colorectal cancer cell lines (IRC) and two mouse-derived glioma models (NLS) were used. […] Sequencing of the double mutant cell line was performed using MSK-IMPACT [25]. IRC primary cell lines were cultured with DMEM/F12 50:50 Mix (Corning) supplemented with 10% FBS. NLS Bcan-Ntrk1 Trka G598R and Bcan-Ntrk1 Trka G670C single mutants as well as double mutants NLS Bcan-Ntrk1 Trka G598R/G670A and NLS Bcan-Ntrk1 Trka G598R/G670C isogenic models were established using CRISPR/Cas9 to knock-in TRKA solvent-front and xDFG mutations into tumor cells derived from a Bcan-Ntrk1-driven glioma mouse model. Trka G598R is the mouse ortholog to human TRKA G595R while Trka G670A and Trka G670C are the mouse ortholog to human TRKA G667A and TRKA G667C, respectively. Mouse p53 ^−/^− Bcan-Ntrk1 glioma cells were plated on laminin-coated plates and cultured with Neurocult Stem Cell Basal Media with Proliferation Supplements (Stem Cell Technologies). […]
(§2) CellTiter-Glo Cell Viability Assays (Promega) and crystal violet clonogenic assays were performed on primary NTRK fusion-positive colorectal cancer cell lines, mouse Ba/F3 cell lines and isogenic mouse glioma cell lines. […] Absorbance was read at 490 nm in accordance with Promega’s protocol. […]
(§3) Statistical analyses were conducted using GraphPad Prism 9 (GraphPad Software Inc.). […] Measurements were assessed for normal distribution and homogeneity of variance using appropriate tests and were analyzed using analysis of variance or T-Tests, and nonparametric tests were used for non-normal distributed data. […]

[2] = test system: Kor1; assay: CellTiter-Glo cell viability, Kor1 primary CRC cell line (TPM3-NTRK1); type: cell-based, human; settings: TPM3-NTRK1 fusion, 72 h, read-out: IC50 against Kor1 cell line
From the text: as §1, §2, §3

[3] = test system: Ba/F3 LMNA-NTRK1-A608D; assay: Ba/F3 cell viability (anti-proliferative activity); type: cell-based, mouse
From the text: (§4) NTRK fusion-positive colorectal cancer cell lines IRC, Kor1, and KM12 were utilized. The IRC and the KM12 cell lines were obtained from Dr. Bardelli and cultured according to the described protocols. The Kor1 cell line was obtained from Lee et al. and cultured on laminin pre-treated plates in RPMI media supplemented with 10% Fetal Bovine Serum (FBS). All cell lines were authenticated by STR and periodically screened for the presence of mycoplasma. For the mutant models, two human-derived colorectal cancer cell lines (IRC) and two mouse-derived glioma models (NLS) were used. […] Sequencing of the double mutant cell line was performed using MSK-IMPACT [25]. IRC primary cell lines were cultured with DMEM/F12 50:50 Mix (Corning) supplemented with 10% FBS. NLS Bcan-Ntrk1 Trka G598R and Bcan-Ntrk1 Trka G670C single mutants as well as double mutants NLS Bcan-Ntrk1 Trka G598R/G670A and NLS Bcan-Ntrk1 Trka G598R/G670C isogenic models were established using CRISPR/Cas9 to knock-in TRKA solvent-front and xDFG mutations into tumor cells derived from a Bcan-Ntrk1-driven glioma mouse model. Trka G598R is the mouse ortholog to human TRKA G595R while Trka G670A and Trka G670C are the mouse ortholog to human TRKA G667A and TRKA G667C, respectively. Mouse p53 ^−/^− Bcan-Ntrk1 glioma cells were plated on laminin-coated plates and cultured with Neurocult Stem Cell Basal Media with Proliferation Supplements (Stem Cell Technologies). Ba/F3 cell lines stably expressing WT and mutant versions (i.e. G595R, G667C/A, V573M, F589L, F633L, F617L, G623R/E, G639R, G696A/C, G709C, V608D/M) of human TRKA, TRKB or TRKC were generated using either lentiviral transduction or standard transfection methods by a contract research organization (Kyinno, Beijing, China).
(§5) CellTiter-Glo Cell Viability Assays (Promega) and crystal violet clonogenic assays were performed on primary NTRK fusion-positive colorectal cancer cell lines, mouse Ba/F3 cell lines and isogenic mouse glioma cell lines. For the CellTiter-Glo assays, three biological replicates were performed, with each condition being assayed in triplicate determinations. Cells were seeded in a 96-well plate in the afternoon at optimal density. […] Plates were removed from the incubator 72 h later and CellTiter-Glo reagent was added. Absorbance was read at 490 nm in accordance with Promega’s protocol. Data is presented as a survival percentage on the y-axis (mean ± STDEV) normalized to the control DMSO-treated cells deemed 100% viable. Drug concentrations on the x-axis are represented as a base 10 logarithm (LOG). For the crystal violet assays, cells were seeded in a 24-well plate at optimal densities in the afternoon. […] Crystal violet plates were removed from the incubator 72 h later, washed with PBS, fixed with 4% paraformaldehyde for 15 min, and stained with crystal violet for 10 min. Crystal violet was washed off and plates were left to dry prior to imaging. Clonogenic assays were performed in three biological replicates.
(§6) Statistical analyses were conducted using GraphPad Prism 9 (GraphPad Software Inc.). For CellTiter-Glo assays, raw data obtained were normalized to the DMSO control utilizing Microsoft Excel. […] Data is presented as the mean ± standard deviation (STDEV) of all replicates. Measurements were assessed for normal distribution and homogeneity of variance using appropriate tests and were analyzed using analysis of variance or T-Tests, and nonparametric tests were used for non-normal distributed data. Animal studies utilized five arms with six or eight mice per arm. A Kaplan–Meier test was used to assess lifespan characteristics and for comparison between groups. Median survivals were obtained using GraphPad Prism 9. Sample size was based on statistical power analysis to ensure sufficient capability to detect a pre-specified effect size. We assumed a moderate effect size, with an alpha level set at 0.05, and a power (1-β) set at 0.80.

[4] = test system: Ba/F3 LMNA-NTRK1-F589L; assay: Ba/F3 cell viability (anti-proliferative activity); type: cell-based, mouse
From the text: as §4, §5, §6

[5] = test system: Ba/F3 LMNA-NTRK1-G595R; assay: Ba/F3 cell viability (anti-proliferative activity); type: cell-based, mouse
From the text: as §4, §5, §6

[6] = test system: Ba/F3 LMNA-NTRK1-G667A; assay: Ba/F3 cell viability (anti-proliferative activity); type: cell-based, mouse
From the text: as §4, §5, §6

[7] = test system: Ba/F3 LMNA-NTRK1-G667C; assay: Ba/F3 cell viability (anti-proliferative activity); type: cell-based, mouse
From the text: as §4, §5, §6

[8] = test system: Ba/F3 LMNA-NTRK1; assay: Ba/F3 cell viability (anti-proliferative activity); type: cell-based, mouse
From the text: as §4, §5, §6

[9] = test system: Ba/F3-LMNA-NTRK1-V573M; assay: Ba/F3 cell viability (anti-proliferative activity); type: cell-based, mouse
From the text: as §4, §5, §6

[10] = test system: Ba/F3 LMNA-NTRK1-G667S; assay: Ba/F3 cell viability (anti-proliferative activity); type: cell-based, mouse

| Molecule | IC50 [1] | IC50 [2] | IC50 [3] | IC50 [4] | IC50 [5] | IC50 [6] | IC50 [7] | IC50 [8] | IC50 [9] | IC50 [10] | IC50 ([1]; Homo sapiens) | IC50 ([2]; Homo sapiens) | IC50 ([3]; Mus musculus, BaF3) | IC50 ([4]; Mus musculus, BaF3) | IC50 ([5]; Mus musculus, BaF3) | IC50 ([6]; Mus musculus, BaF3) | IC50 ([7]; Mus musculus, BaF3) | IC50 ([8]; Mus musculus, BaF3) | IC50 ([9]; Mus musculus, BaF3) | IC50 ([10]; Mus musculus, BaF3) |
| --- | --- | --- | --- | --- | --- | --- | --- | --- | --- | --- | --- | --- | --- | --- | --- | --- | --- | --- | --- | --- |
| zurletrectinib | 0.47 nM | 7.2 nM | 1.18 nM | 40.8 nM | 11 nM | 5.27 nM | 38.8 nM | 1.2 nM | 2.33 nM | 193 nM |  |  |  |  |  |  |  |  |  |  |
| O=C(Nc1cnn2ccc(N3CCC[C@@H]3c3cc(F)ccc3F)nc12)N1CC[C@H](O)C1 [Larotrectinib, larotrectinib] |  |  |  |  |  |  |  |  |  |  | 13.4 nM | 24.8 nM | 19.7 nM | 614 nM | 3200 nM | 118 nM | 1370 nM | 21.8 nM | 45.4 nM | 3200 nM |
| C[C@@H]1CCc2ncc(F)cc2[C@H]2CCCN2c2ccn3ncc(c3n2)C(=O)N1 [Selitrectinib, selitrectinib] |  |  |  |  |  |  |  |  |  |  | 4.6 nM | 13 nM | 3.16 nM | 46.9 nM | 18.1 nM | 21.1 nM | 164 nM | 3.38 nM | 5.47 nM | 537 nM |
